In patent publication US8173705B2, “Agent for alleviating wrinkles” (Shiseido Company Ltd., priority 2007, dated 2012):

System: SCCA 1 (Serpin b3) expression
Test: Effect of suppressing SCCA 1 expression (RT-PCR in human normal keratinocytes)
Format: cell-based
Settings: incubated 24 hours, G3PDH internal standard, compared with control sample
Experimental: Human normal keratinocytes (manufactured by KURABO INDUSTRIES LTD.) were incubated with culture medium, Epilife (manufactured by KURABO INDUSTRIES LTD.) For medium replacement, the medium was subcultured for three times a week. The human normal keratinocytes were seeded on 3.5 cm dishes. In the phase of 60 to 70% confluent, 200 μM and 1 mM of N-benzenesulfonyl-gamma-aminobutyric were respectively added to the dishes, which were incubated for 24 hours. Then RNAs were extracted with use of Isogen, and SCCA 1 (Serpin b3) expression levels were measured by RT-PCR. Additionally, as a control sample, the same test except no addition of gamma-aminobutyric acid derivatives was conducted. G3PDH was used as internal standard. The primers used for PCR were as follows.

O=C(O)CCCNS(=O)(=O)c1ccccc1 [N-benzenesulfonyl-gamma-aminobutyric acid]
Serpin b3 (SCCA 1) expression level (200 μM added): significantly decreased
Serpin b3 (SCCA 1) expression level (1 mM added): significantly decreased
